Test results as given in patent publication US8642065B2, “Osteogenic promoting implants and methods of inducing bone growth” (DePuy Synthes Products, LLC, priority 2011, dated 2014).
Structures can show the parent of a compound that is named as a salt. Where two headings read alike, the source gives them in different places.

Assays:
[1] = tested on: primary human mesenchymal stem cells (MSCs); assay: Osteoinductive (OI) alkaline phosphatase (ALP) assay, dose response, ALP normalised to DNA; format: cell-based
Excerpt: (§1) Samples from several classes of small molecule compounds including, corticosteroids, glucocorticoids, oxysterols, compounds that impact the HMG coA reductase pathway and compounds that upregulate intracellular cAMP were screened for osteoinductive potential with an alkaline phosphatase (ALP) assay in primary human mesenchymal stem cells (MSCs). Sample compounds were screened over a dose range in a multiwell plate format using DNA to normalize the ALP response as a function of cell number. These dose response curves allowed for the determination of an EC50 to measure relative potency of the osteogenic response between compounds. FIG. 1 is a representative dose response curve for two of the corticosteroid compounds tested, clobetasol propionate and dexamethasone. In addition to the functional analysis, certain identified compounds were run through an in vitro L929 cytotoxicity assay to determine a CC50.

[2] = In vitro L929 cytotoxicity assay (CTG); format: cell-based; conditions: mouse, L929 cells; read-out: Cytotox (CTG) CC50
Excerpt: as §1

MSCs [3] = assay: Relative potency: ALP assay after short exposure times, then basal media to assay completion; format: cell-based, human; conditions: for EC50: Homo sapiens, MSCs, then basal media; for Max Osteogenic Response: time range to reach the full response of the ALP assay control (dexamethasone at 10 nM for 6 days)
Procedure: One part of this technology may involve coating an osteoconductive scaffold with an osteoinductive small molecule compound to thereby deliver the compound locally when the scaffold is implanted. Consequently, the optimal time and concentration profile required for the compound to remain at the site in order to influence an osteogenic outcome was determined. Initially, potency was determined by looking at exposure over 6 days. In order to better understand the optimal exposure profile, MSCs were treated over a series of dose ranges for exposure times starting at 1 hour out to 4 days, after which the compound treated media was removed and the cells were allowed to continue to assay completion under basal media conditions. This allowed for the determination of the relative potency of the compounds over short exposure periods and gave an indication of the release requirements that would be necessary to achieve the desired osteogenic outcome.
FIG. 2 is a representative relative potency graph of a corticosteroid, fluticasone propionate, based on the results shown in Table 2.

MSCs [4] = assay: In vitro 3-D efficacy: ALP RNA expression in MSCs seeded on coated Scaffold I; format: cell-based; conditions: compound precoated on Scaffold I, MSCs cultured three days, versus basal conditions
Procedure: The osteoinductive potential of selected small molecule compounds were determined in vitro by seeding MSCs onto a three dimensional b-TCP polymer composite scaffold, Scaffold I, which had been coated with selected compounds prior to seeding. These cells were allowed to culture for a period of time after which they were assayed for alkaline phosphatase (ALP) RNA content, an early marker of osteogenic differentiation. FIG. 7 is a graphical illustration showing the amount of ALP RNA expression in the MSCs, expressed as a fold increase over basal conditions (standard culture conditions). In this example, dexamethasone (a control for the assay) was added to the culture media in solution whereas in all other cases the compounds were precoated on to Scaffold I followed by addition of the MSCs. The cells were then cultured for three days and assayed for their level of osteogenic response via ALP RNA expression.

[5] = Homo sapiens, Mesenchymal stem cells, 144 h, primary human MSCs, exposure over 6 days, read-out: OI Assay (ALP) EC50
[6] = Homo sapiens, Mesenchymal stem cells, 144 h, MSCs, 6 days exposure, read-out: EC50 6 days
[7] = 4 hr exposure, read-out: EC50 4 hr.
[8] = 72 hr exposure, read-out: EC50 72 hr
[9] = 1 hr exposure, read-out: EC50 1 hr.
[10] = 24 hr exposure, read-out: EC50 24 hr.
[11] = primary human MSCs, exposure over 6 days, read-out: OI Assay (ALP) EC50

## CC(C)CC[C@@H](O)[C@@H](C)[C@H]1CC[C@H]2[C@@H]3CC=C4C[C@@H](O)CC[C@]4(C)[C@H]3CC[C@]12C [22(r)-hydroxy-cholesterol]
[1]; [5]
  EC50: 785 nM
[2]
  CC50: > 12000 nM

## CC(=O)[C@@]1(O)CC[C@H]2[C@@H]3C[C@H](C)C4=CC(=O)C=C[C@]4(C)[C@@]3(F)[C@@H](O)C[C@@]21C [Fluorometholone]
[1]; [6]
  EC50: 0.319 nM
[1]; [5]
  EC50: 0.319 nM
[2]
  CC50: > 5000 nM
MSCs [3]; [7]
  EC50: 0.464 nM
MSCs [3]; [8]
  EC50: 0.146 nM
MSCs [3]
  Max Osteogenic Response: 144 h

## CC(C)CC[C@H](O)[C@@H](C)[C@H]1CC[C@H]2[C@@H]3CC=C4C[C@@H](O)CC[C@]4(C)[C@H]3CC[C@]12C [22(S)-hydroxy-cholesterol]
[1]; [5]
  EC50: > 12000 nM

## CC1(C)O[C@@H]2C[C@H]3[C@@H]4CCC5=CC(=O)CC[C@]5(C)[C@@]4(F)[C@@H](O)C[C@]3(C)[C@]2(C(=O)CCl)O1 [Halcinonide]
[1]; [6]
  EC50: 0.235 nM
[1]; [5]
  EC50: 0.235 nM
[2]
  CC50: > 10000 nM
MSCs [3]; [9]
  EC50: 2.29 nM
MSCs [3]; [10]
  EC50: 1.26 nM
MSCs [3]; [8]
  EC50: 0.115 nM
MSCs [3]
  Max Osteogenic Response: 72 h
MSCs [4]
  ALP RNA expression (osteogenic differentiation of MSCs): upregulated osteogenic differentiation of MSCs significantly

## O=C(O)c1ccc(CCN2CCN(C/C=C/c3ccc(Cl)cc3)CC2)cc1 [bm15766 sulfate]
[1]; [11]
  EC50: > 10000 nM

## CCC(=O)O[C@]1(C(=O)CCl)[C@@H](C)C[C@H]2[C@@H]3CCC4=CC(=O)C=C[C@]4(C)[C@@]3(F)[C@@H](O)C[C@@]21C [Clobetasol propionate]
[1]; [6]
  EC50: 0.012 nM
[1]; [5]
  EC50: 0.012 nM
[2]
  CC50: > 30000 nM
MSCs [3]; [9]
  EC50: 0.0605 nM
MSCs [3]; [7]
  EC50: 0.019 nM
MSCs [3]; [10]
  EC50: 0.0804 nM
MSCs [3]; [8]
  EC50: 0.00371 nM
MSCs [3]
  Max Osteogenic Response: 72 h
MSCs [4]
  ALP RNA expression (osteogenic differentiation of MSCs): upregulated osteogenic differentiation of MSCs significantly

## OCCN(CCO)c1nc(N2CCCCC2)c2nc(N(CCO)CCO)nc(N3CCCCC3)c2n1 [Dipyridamole]
[2]
  CC50: > 30000 nM

## O=C1C=C2C(=CCOC2O)O1 (centres unmarked) [Patulin]
[1]; Mesenchymal stem cells, 144 h, primary human MSCs, exposure over 6 days, read-out: OI Assay (ALP) EC50
  EC50: > 10000 nM

## CC(C)Cn1c(=O)n(C)c(=O)c2[nH]cnc21 [3-isobutyl 1-methylxanthine (IBMX), 3-isobutyl 1-methylxanthine]
[1]; [5]
  EC50: > 10000 nM

## CC(=O)OCC(=O)[C@@]1(OC(C)=O)[C@@H](C)C[C@H]2[C@@H]3C[C@H](F)C4=CC(=O)C=C[C@]4(C)[C@@]3(F)[C@@H](O)C[C@@]21C [Diflorasone Diacetate]
[1]; [5]
  EC50: 1.38 nM

## COC(=O)[C@H](CC(C)C)NC(=O)c1ccc(NC[C@@H](N)CS)cc1-c1ccccc1 [GGTI-286]
[1]; [11]
  EC50: > 12000 nM

## CCCn1cnc2c1c(=O)n(CCCCC(C)=O)c(=O)n2C [Propentofylline]
[1]; [5]
  EC50: > 10000 nM

## CC[C@H](CC[C@@H](C)[C@H]1CC[C@H]2[C@@H]3CC=C4C[C@@H](O)CC[C@]4(C)[C@H]3CC[C@]12C)C(C)C [β-Sitosterol]
[1]; [11]
  EC50: > 12000 nM

## C[C@]12C=CC(=O)C=C1CC[C@H]1[C@@H]3C[C@@H](O)[C@](O)(C(=O)CO)[C@@]3(C)C[C@H](O)[C@@]12F [Triamcinolone]
[1]; [5]
  EC50: 4.13 nM
